Assay results from patent US7524860B2, “Antibacterial agents” (Pfizer Inc., priority 2004, dated 2009).
≈ marks a conversion by molar mass, not a printed value.

Tested on: Neisseria gonorrhoeae, GC525 (NG-2888)
Experiment: in-vitro antibacterial activity, microbroth dilution MIC susceptibility testing
Assay type: cell-based
Set-up: unit: ug/mL
Conditions: Neisseria gonorrhoeae, microbroth dilution in gonococcal broth, 20-24 hours at 35 C, lowest concentration preventing visible growth, read-out: MIC
Method: The in-vitro antibacterial activity of selected compounds was determined against a stain of Neisseria gonorrhoeae, GC525 (NG-2888), which is described by Rouquette-Loughlin et al, in Journal of Bacteriology, February 2003, p. 1101-1106, at p. 1103. In general, minimum inhibitory concentration (MIC) susceptibility testing followed procedures recommended by the National Committee for Clinical Laboratory Standards (NCCLS^1-2) or followed the descriptions described below:
Neisseria gonorrhoeae strains were grown on Chocolate Agar II plates (BBL—Becton Dickinson Microbiology Systems, Cockeysville, Md.) and incubated at 35° C. in a humidified 5% CO2 incubator (Form a Scientific, Marietta Ohio). For microbroth dilution MIC testing, N. gonorrhoeae were tested in gonococcal broth (GCB):
Gram stains were also utilized. Permanent Stock Culture Collection
Bacterial stock cultures are stored as frozen suspensions at −70 C. N. gonorrhoeae cultures are suspended in inactivated Horse Serum (Colorado Serum Company, Denver, Colo.) containing 7.5% glucose prior to snap freezing in a dry ice/ethanol bath.
Preparation of Standardized Test Inocula and Plate Inoculation
Frozen stock cultures were used as the initial source of organisms for performing microbroth dilution MIC testing. Stock cultures were passed on their respective growth medium at least one growth cycle (18-24 hours) prior to their use. Bacterial culture suspensions were prepared directly from Chocolate Agar II plates into 10 mL cation-adjusted Mueller-Hinton Broth (CAMHB, BBL, # BB215069). Before use, cultures were adjusted to an optical density value of 1.6-2 on a Perkin-Elmer Lambda EZ150 Spectrophotometer (Wellesley, Mass.) set at a wavelength of 600 nm. Random cultures were plated for validation of actual colony counts. The adjusted cultures were diluted 400-fold (0.25 mL inoculum+100 mL GCB) into gonococcal broth producing a starting inoculum of approximately 5×10^5 cfu/mL. These cultures were inoculated into test plates (100 uL/well) using a Biomek® FX workstation (Beckman Coulter Inc., Fullerton, Calif.). The inoculated plates were placed in stacks of no more than 4 and covered with an empty plate. Plates were incubated for 20-24 hours at 35 C in a humidified CO2 incubator.
Test Compound (“Drug”) Preparation
Drug stock solutions (2 mg/mL in DMSO) were prepared on the day of testing. Drugs were weight corrected for assay content where necessary.
Drug Dilution Tray Preparation
Microbroth dilution stock plates were prepared in two dilution series, 64-0.06 ug drug/mL and 1-0.001 ug drug/mL. For the high concentration series, 200 uL of stock solution (2 mg/mL) was added to duplicate rows of a 96-well plate. This was used as the first well in the dilution series. Serial two-fold decremental dilutions were made using a BioMek FX robot (Beckman Coulter Inc., Fullerton, Calif.) with 10 of the remaining 11 wells, each of which contained 100 uL of the appropriate solvent/diluent. Row 12 contained solvent/diluent only and served as the control. For tube one of the low concentration series, 200 uL of a 31.25 ug/mL stock was added to duplicate rows of a 96-well plate. Serial two-fold dilutions were made as described above.
Daughter plates were spotted (3.2 uL/well) from the stock plates listed above using the BioMek FX robot and were inoculated with organism (100 uL/well) as described previously.
After incubation, the degree of growth in each well was read visually with the aid of a Test Reading Mirror (Dynatech Lab 220-16, Dynex Technologies, Chantilly, Va.). 96-well test plates are read in a darkened room with a single light shining from above. The MIC is the lowest concentration of drug that prevents macroscopically visible growth under the conditions of the test. […] If MIC values in duplicate tests differ by 1 well (two-fold), the […] value is reported. If duplicate tests vary by 2 dilutions (four-fold), the middle value is reported.

| Molecule | MIC |
| --- | --- |
| CCNC(=O)Nc1nc2cc(-c3cncnc3)ccn2n1 [Example 5, 1-Ethyl-3-(7-pyrimidin-5-yl-[1,2,4]triazolo[1,5-a]pyridin-2-yl)-urea] | 64 µg/mL (≈ 226 µM) |
| CCNC(=O)Nc1nc2cc(-c3cccnc3)cc(C(=O)NCC)n2n1 [Example 8, 2-(3-Ethyl-ureido)-7-pyridin-3-yl-[1,2,4]triazolo[1,5-a]pyridine-5-carboxylic acid ethylamide] | 1 µg/mL (≈ 2.83 µM) |
| CCCNC(=O)c1cc(-c2cccnc2)cc2nc(NC(=O)NCC)nn12 [Example 9, 2-(3-Ethyl-ureido)-7-pyridin-3-yl-[1,2,4]triazolo[1,5-a]pyridine-5-carboxylic acid propylamide] | 4 µg/mL (≈ 10.9 µM) |
| CCNC(=O)Nc1nc2cc(-c3cccnc3)cc(C(=O)NCC3CC3)n2n1 [Example 10, 2-(3-Ethyl-ureido)-7-pyridin-3-yl-[1,2,4]triazolo[1,5-a]pyridine-5-carboxylic acid cyclopropylmethyl-amide] | 8 µg/mL (≈ 21.1 µM) |
| CCNC(=O)Nc1nc2cc(-c3cccnc3)cc(C(=O)NCc3ccccc3)n2n1 [Example 11, 2-(3-Ethyl-ureido)-7-pyridin-3-yl-[1,2,4]triazolo[1,5-a]pyridine-5-carboxylic acid benzylamide] | > 64 µg/mL |
| CCNC(=O)Nc1nc2cc(-c3cccnc3)cc(C(=O)NC(C)C)n2n1 [Example 12, 2-(3-Ethyl-ureido)-7-pyridin-3-yl-[1,2,4]triazolo[1,5-a]pyridine-5-carboxylic acid isopropylamide] | 2 µg/mL (≈ 5.44 µM) |
| CCNC(=O)Nc1nc2cc(-c3cccnc3)cc(C(=O)NC3CC3)n2n1 [Example 13, 2-(3-Ethyl-ureido)-7-pyridin-3-yl-[1,2,4]triazolo[1,5-a]pyridine-5-carboxylic acid cyclopropylamide] | 4 µg/mL (≈ 10.9 µM) |
| CCNC(=O)Nc1nc2cc(-c3cccnc3)cc(-c3cnco3)n2n1 [Example 22, N-Ethyl-N′-[5-(1,3-oxazol-5-yl)-7-pyridin-3-yl[1,2,4]triazolo[1,5-a]pyridin-2-yl]urea] | 0.5 µg/mL (≈ 1.43 µM) |
| CCNC(=O)Nc1nc2cc(-c3cccnc3)cc(/C=N/O)n2n1 [Example 24, N-Ethyl-N′-{5-[(E)-(hydroxyimino)methyl]-7-pyridin-3-yl[1,2,4]triazolo[1,5-a]pyridin-2-yl}urea] | > 64 µg/mL |
| CCNC(=O)Nc1nc2cc(-c3cccnc3)cc(C(C)O)n2n1 (stereo not shown) [Example 25, N-Ethyl-N′-[5-(1-hydroxyethyl)-7-pyridin-3-yl[1,2,4]triazolo[1,5-a]pyridin-2-yl]urea] | 1 µg/mL (≈ 3.06 µM) |
| CCNC(=O)Nc1nc2cc(-c3cccnc3)cc(C(C)=O)n2n1 [Example 26, N-(5-Acetyl-7-pyridin-3-yl[1,2,4]triazolo[1,5-a]pyridin-2-yl)-N′-ethylurea] | 1 µg/mL (≈ 3.08 µM) |
| CCNC(=O)Nc1nc2cc(-c3cccnc3)cc(C#N)n2n1 [Example 27, N-(5-Cyano-7-pyridin-3-yl[1,2,4]triazolo[1,5-a]pyridin-2-yl)-N′-ethylurea] | 2 µg/mL (≈ 6.51 µM) |
| CCNC(=O)Nc1nc2cc(-c3cccnc3)cc(-c3nnc(CC(C)=O)o3)n2n1 [Example 28, 1-Ethyl-3-{5-[5-(2-oxo-propyl)-[1,3,4]oxadiazol-2-yl]-7-pyridin-3-yl-[1,2,4]triazolo[1,5-a]pyridin-2-yl}-urea] | > 64 µg/mL |
| CCNC(=O)Nc1nc2cc(-c3cnccc3OC)cc(C(=O)NCC)n2n1 [Example 32, 2-(3-Ethyl-ureido)-7-(4-methoxy-pyridin-3-yl)-[1,2,4]triazolo[1,5-a]pyridine-5-carboxylic acid ethyl amide] | 1 µg/mL (≈ 2.61 µM) |
| CCNC(=O)Nc1nc2cc(C3=CCOCC3)cc(C(=O)NCC)n2n1 [Example 33, 7-(3,6-Dihydro-2H-pyran-4-yl)-2-(3-ethyl-ureido)-[1,2,4]triazolo[1,5-a]pyridine-5-carboxylic acid ethyl amide] | > 64 µg/mL |
| CCNC(=O)Nc1nc2cc(-c3ccc(F)nc3)cc(C(=O)NCC)n2n1 [Example 34, 2-(3-Ethyl-ureido)-7-(6-fluoro-pyridin-3-yl)-[1,2,4]triazolo[1,5-a]pyridine-5-carboxylic acid ethylamide] | 1 µg/mL (≈ 2.69 µM) |
| CCNC(=O)Nc1nc2cc(-c3ccc(C)nc3C)cc(C(=O)NCC)n2n1 [Example 35, 7-(2,6-Dimethyl-pyridin-3-yl)-2-(3-ethyl-ureido)-[1,2,4]triazolo[1,5-a]pyridine-5-carboxylic acid ethyl amide] | 8 µg/mL (≈ 21 µM) |
| CCNC(=O)Nc1nc2cc(-c3cccnc3)cc(C(=O)N(C)CCN(CC)CC)n2n1 [Example 36, 2-(3-Ethyl-ureido)-7-pyridin-3-yl-[1,2,4]triazolo[1,5-a]pyridine-5-carboxylic acid(2-diethylamino-ethyl)-methyl-amide] | > 64 µg/mL |
| CCNC(=O)Nc1nc2cc(-c3cccnc3)cc(C(=O)N[C@H]3CC[C@H](O)CC3)n2n1 [Example 39, trans-2-(3-Ethyl-ureido)-7-pyridin-3-yl-[1,2,4]triazolo[1,5-a]pyridine-5-carboxylic acid (4-hydroxy-cyclohexyl)-amide] | 32 µg/mL (≈ 75.6 µM) |
| CCNC(=O)Nc1nc2cc(-c3cccnc3)cc(C(=O)NCC(C)C)n2n1 [Example 40, 2-(3-Ethyl-ureido)-7-pyridin-3-yl-[1,2,4]triazolo[1,5-a]pyridine-5-carboxylic acid isobutyl-amide] | 2 µg/mL (≈ 5.24 µM) |
| CCNC(=O)Nc1nc2cc(-c3cccnc3)cc(C(=O)NC3CCN(C(C)C)CC3)n2n1 [Example 41, 2-(3-Ethyl-ureido)-7-pyridin-3-yl-[1,2,4]triazolo[1,5-a]pyridine-5-carboxylic acid (1-isopropyl-piperidin-4-yl)-amide] | 16 µg/mL (≈ 35.5 µM) |

Same assay, conditions: microbroth dilution in gonococcal broth, 20-24 hours at 35 C, lowest concentration preventing visible growth

| Molecule | MIC |
| --- | --- |
| 1-(5-Cyclopropylaminomethyl-7-pyridin-3-yl-imidazo[1,2-a]pyridin-2-yl)-3-ethyl-urea [Example 114] | 32.0 µg/mL |
| 1-Ethyl-3-(5-ethylaminomethyl-7-pyridin-3-yl-imidazo[1,2-a]pyridin-2-yl)-urea [Example 115] | 32.0 µg/mL |
| 1-Ethyl-3-[7-pyridin-3-yl-5-(pyrrolidine-1-carbonyl)-imidazo[1,2-a]pyridin-2-yl]-urea [Example 120] | >64.0 µg/mL |
| 1-[7-(6-Dimethylamino-pyridin-3-yl)-[1,2,4]triazolo[1,5-a]pyridin-2-yl]-3-ethyl-urea [Example 4] | >64.0 µg/mL |
| 2-(3-Ethyl-ureido)-7-(4-methoxy-phenyl)-imidazo[1,2-a]pyridine-5-carboxylic acid ethylamide [Example 119] | 64.0 µg/mL |
| 7-(2-Dimethylamino-pyrimidin-5-yl)-2-(3-isopropyl-ureido)-imidazo[1,2-a]pyridine-5-carboxylic acid ethylamide [Example 117] | >64.0 µg/mL |
| CCNC(=O)Nc1nc2cc(-c3cccnc3)cc(C(=O)N(CC)CC)n2n1 [Example 14, 2-(3-Ethyl-ureido)-7-pyridin-3-yl-[1,2,4]triazolo[1,5-a]pyridine-5-carboxylic acid diethylamide] | 16 µg/mL (≈ 41.9 µM) |
| CCNC(=O)Nc1nc2cc(-c3cccnc3)cc(-c3nnc(C(C)C)o3)n2n1 [Example 29] | >64.0 µg/mL |
| CCNC(=O)Nc1nc2cc(-c3cnc(N(C)C)nc3)cc(-c3nnc(CC(C)C)s3)n2n1 [Example 30] | >64.0 µg/mL |
| CCNC(=O)Nc1nc2cc(-c3cccnc3OC)cc(C(=O)NCC)n2n1 [Example 31, 2-(3-Ethyl-ureido)-7-(2-methoxy-pyridi-3-yl)-[1,2,4]triazolo[1,5-a]pyridine-5-carboxylic acid ethyl amide] | 8.00 µg/mL (≈ 20.9 µM) |
